Measured values: the supplement of paper PMC13380429

Assays:
[1] = test system: U2OS; experiment: cell viability relative to DMSO; higher = less toxic; conditions: 72 h
[2] = test system: Caco-2; experiment: as above; conditions: 72 h
[3] = test system: Calu-3; experiment: as above; conditions: 72 h
[4] = test system: Vero E6; experiment: as above; conditions: 72 h
[5] = test system: HepG2; experiment: as above; conditions: 72 h
[6] = test system: U2OS; experiment: drug sensitivity score (DSS) for viability; higher = more toxic; extreme values may be limits of the assay; conditions: 72 h
[7] = test system: Caco-2; experiment: as above; conditions: 72 h
[8] = test system: Calu-3; experiment: as above; conditions: 72 h
[9] = test system: Vero E6; experiment: as above; conditions: 72 h
[10] = test system: HepG2; experiment: as above; conditions: 72 h
[11] = test system: A549-ACE2 infected with SARS-CoV-2; experiment: cell count relative to DMSO; higher = less toxic; conditions: 24 h
[12] = test system: A549-ACE2 infected with SARS-CoV-2; experiment: SARS-CoV-2 infection rate relative to DMSO; higher = more infection; conditions: 24 h
[13] = test system: A549-ACE2 infected with SARS-CoV-2; experiment: morphology score (similarity to uninfected cells); higher = more like uninfected cells; conditions: 24 h
[14] = test system: Caco-2; experiment: relative viability EC50 (midpoint between 100% and the lowest measured viability); higher = less toxic; conditions: 72 h
[15] = test system: Calu-3; experiment: as above; conditions: 72 h
[16] = test system: A549-ACE2; experiment: drug-induced phospholipidosis relative to tamoxifen; higher = more phospholipidosis
[17] = test system: U2OS; experiment: relative viability EC50 (midpoint between 100% and the lowest measured viability); higher = less toxic; conditions: 72 h
[18] = test system: Vero E6; experiment: as above; conditions: 72 h
[19] = test system: HepG2; experiment: as above; conditions: 72 h

CCn1c(-c2nonc2N)nc2cncc(C(=O)N3CC[C@H](N)C3)c21
Conditions	SARS-CoV-2 infection rate, [12] [%]	cell count, [11] [%]	cell viability, [1] [%]	cell viability, [2] [%]	cell viability, [3] [%]	cell viability, [4] [%]	cell viability, [5] [%]	morphology score, [13]
1 nM	–	–	103	98.7	104	107	99.3	–
10 nM	–	–	99.1	99.1	94	106	108	–
100 nM	–	–	101	98.1	107	95.3	95.9	–
0.1 µM	103	104	–	–	–	–	–	0.19
0.3 µM	105	110	–	–	–	–	–	0.18
1000 nM	–	–	88.2	93.5	127	84.6	88.2	–
1 µM	109	91	–	–	–	–	–	-0.07
3 µM	105	73	–	–	–	–	–	-0.12
10000 nM	–	–	60.5	84.2	124	52.2	71.8	–

Conditions	drug sensitivity score	relative viability EC50 [µM]
[6]	3.7	–
[7]	0.5	–
[8]	0	–
[9]	4.4	–
[10]	2.2	–
[14]	–	> 10
[15]	–	> 10

drug-induced phospholipidosis [%], [16]
Conditions	0.3 µM	0.833333 µM	3.33333 µM	6.66667 µM	10 µM	30 µM
24 h	0.14	1.05	-2.9	-4.65	-1.66	4.03
48 h	0.57	0.37	-3.24	-3.77	-1.92	7.82
72 h	0.439	-0.392	-3.22	-2.1	–	–

CO[C@H]1C[C@H](O[C@@H]2/C(C)=C/C[C@@H]3C[C@@H](C[C@]4(CC[C@H](C)[C@@H](C5CCCCC5)O4)O3)OC(=O)[C@@H]3C=C(C)/C(=N/O)[C@H]4OC/C(=C\C=C\[C@@H]2C)[C@]43O)O[C@@H](C)[C@@H]1O [selamectin]
Conditions	SARS-CoV-2 infection rate, [12] [%]	cell count, [11] [%]	cell viability, [1] [%]	cell viability, [2] [%]	cell viability, [3] [%]	cell viability, [4] [%]	cell viability, [5] [%]	morphology score, [13]
1 nM	–	–	103	112	101	104	113	–
10 nM	–	–	98	119	106	104	120	–
100 nM	–	–	103	105	96.2	104	117	–
0.3 µM	103	96	–	–	–	–	–	-0.14
1000 nM	–	–	98.8	79.9	104	107	121	–
3 µM	79	105	–	–	–	–	–	0.43
10000 nM	–	–	90.4	86.5	91.2	86.7	84.1	–
10 µM	48	93	–	–	–	–	–	0.75
30 µM	15	111	–	–	–	–	–	0.7

Conditions	drug sensitivity score	relative viability EC50 [µM]
[6]	0	–
[7]	2.5	–
[8]	0	–
[9]	0	–
[10]	0.1	–
[14]	–	> 10
[15]	–	> 10
[17]	–	> 10
[18]	–	> 10
[19]	–	> 10

C[C@@H]1CN(Cc2ccc(F)cc2)[C@@H](C)CN1C(=O)c1cc2c(C(=O)C(=O)N(C)C)cn(C)c2cc1Cl [talmapimod]
cell viability [%]
Conditions	[1]	[2]	[3]	[4]	[5]
1 nM	106	103	106	96.1	112
10 nM	101	99.2	101	103	108
100 nM	103	90.4	99.8	93.5	100
1000 nM	96.9	86.4	92.9	84.6	104
10000 nM	90.6	91.8	100	85	104

Conditions	drug sensitivity score	relative viability EC50 [µM]
[6]	0	–
[7]	1.5	–
[8]	0	–
[9]	2.1	–
[10]	0	–
[14]	–	> 10
[15]	–	> 10
[17]	–	> 10
[18]	–	> 10
[19]	–	> 10

Cc1ccc2c(c1CCC(=O)O)CC[C@@H](NS(=O)(=O)c1ccc(Cl)cc1)C2 [terutroban]
cell viability [%]
Conditions	[1]	[2]	[3]	[4]	[5]
1 nM	97.1	93	93.2	96.8	102
10 nM	96.7	97.4	85.6	97.6	90.7
100 nM	94.4	100	92.8	95.6	95.1
1000 nM	99.5	102	105	94.6	103
10000 nM	93.2	92.2	97.7	95.8	96.3

Conditions	drug sensitivity score	relative viability EC50 [µM]
[6]	0	–
[7]	0	–
[8]	0	–
[9]	0	–
[10]	0	–
[14]	–	> 10
[15]	–	> 10
[17]	–	> 10
[18]	–	> 10
[19]	–	> 10
